Values quoted from earlier work in patent US20140037713A1, “TRANSDERMAL COMPOSITIONS FOR ANTI-CHOLINERGIC AGENTS” (ANTARES PHARMA IPL, AG, priority 2012, published 2014).

Details: Ref. 2

CCN(CC)CC#CCOC(=O)C(O)(c1ccccc1)C1CCCCC1 (racemic) [Oxybutynin, d,l (racemic) 4-diethylamino-2-butynyl phenylcyclohexylglycolate]
Dissociation const. (pKa): 8.04
